Experimental findings from US20160158377A1, “BCL-XL Inhibitory Compounds and Antibody Drug Conjugates Including the Same” (AbbVie Inc., priority 2014, published 2016) are described below.

Test [1] has as its system Molt-4 human acute lymphoblastic leukemia cells. Nature of the test: Molt-4 cell viability assay. It is filed as cell-based. The conditions noted are these: 10% human serum, 48 hours, CellTiter-Glo, read-out: Molt-4 Viability EC50 (nM, 10% HS). As to the method: In one exemplary set of conditions, Molt-4 (ATCC, Manassas, Va.) human acute lymphoblastic leukemia cells were plated 12,500 cells per well in 384-well tissue culture plates (Corning, Corning, N.Y.) in a total volume of 25 μL tissue culture medium supplemented with 10% human serum (Sigma-Aldrich, St. Louis, Mo.) and treated with a 3-fold serial dilution of the compounds of interest from 10 μM to 0.0005 μM. Each concentration was tested in duplicate at least 3 separate times. The number of viable cells following 48 hours of compound treatment was determined using the CellTiter-Glo® Luminescent Cell Viability Assay according to the manufacturer's recommendations (Promega Corp., Madison, Wis.). Compounds were tested in the presence of 10% HS.

Test [2] deals with Bcl-xL (Homo sapiens, UniProt Q07817). Kind of test: TR-FRET Bcl-xL binding assay (competition with probe F-Bak). As to the method:
For the assay, test compounds were serially diluted in DMSO starting at 50 μM (2× starting concentration; 10% DMSO) and 10 μL transferred into a 384-well plate. 10 μL of a protein/probe/antibody mix was then added to each well at final concentrations listed below:
The samples were then mixed on a shaker for 1 minute and incubated for an additional 2 hours at room temperature. For each assay plate, a probe/antibody and protein/antibody/probe mixture were included as a negative and a positive control, respectively. Fluorescence was measured on the Envision (Perkin Elmer) using a 340/35 nm excitation filter and 520/525 (F-Bak) and 495/510 nm (Tb-labeled anti-his antibody) emission filters. Dissociation constants (Ki) were determined using Wang's equation (Wang, 1995, FEBS Lett. 360:111-114). The TR-FRET assay can be performed in the presence of varying concentrations of human serum (HS) or fetal bovine serum (FBS). Compounds were tested both without HS and in the presence of 1% HS.

Where [3] appears, read: in the presence of 1% human serum (HS), read-out: Bcl-xL Binding Ki (nM, 1% HS).
The mark [4] stands for this setting: without human serum, read-out: Bcl-xL Binding Ki.

Structures are written as SMILES. Like-named read-outs stand apart in the source and are kept apart here. Where only a bound is given, the exact number is not on record here.

Chain of Bcl-xL (Q07817 whole entry): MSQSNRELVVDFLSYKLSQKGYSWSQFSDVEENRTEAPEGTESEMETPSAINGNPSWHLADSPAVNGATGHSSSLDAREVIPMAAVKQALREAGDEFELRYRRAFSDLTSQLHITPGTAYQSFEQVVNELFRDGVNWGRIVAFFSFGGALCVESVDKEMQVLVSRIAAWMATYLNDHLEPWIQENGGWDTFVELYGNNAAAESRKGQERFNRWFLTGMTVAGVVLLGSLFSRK

For `CNCCOC12CC3(C)CC(C)(CC(Cn4ncc(-c5ccc(-c6ccc7c(c6)N(C(=O)Nc6nc8ccccc8s6)CCC7)nc5C(=O)O)c4C)(C3)C1)C2` [Compound W3.01, 6-[1-(1,3-benzothiazol-2-ylcarbamoyl)-1,2,3,4-tetrahydroquinolin-7-yl]-3-[1-({3,5-dimethyl-7-[2-(methylamino)ethoxy]tricyclo[3.3.1.1^3,7]dec-1-yl}methyl)-5-methyl-1H-pyrazol-4-yl]pyridine-2-carboxylic acid], the EC50 in test [1] is 0.3 nM. Moreover, the values for the Ki in test [2] (setting [3]) and in test [2] (setting [4]) were 0.009 nM and less than 0.001 nM, respectively.

On to `CNCCOC12CC3(C)CC(C)(CC(Cn4ncc(-c5ccc(-c6ccc7c(c6)N(C(=O)Nc6nc8ccccc8s6)CCO7)nc5C(=O)O)c4C)(C3)C1)C2` [Compound W3.02], for which, in test [1], the EC50 was determined as 0.5 nM. Moreover, the Ki in test [2] (setting [3]) was 0.047 nM; in test [2] (setting [4]) it was less than 0.001 nM.

As for `CNCCOC12CC3(C)CC(C)(CC(Cn4ncc(-c5ccc(-c6ccc7c(c6)N(C(=O)Nc6nc8ccccc8s6)CCN7C)nc5C(=O)O)c4C)(C3)C1)C2` [Compound W3.03, 6-[4-(1,3-benzothiazol-2-ylcarbamoyl)-1-methyl-1,2,3,4-tetrahydroquinoxalin-6-yl]-3-[1-({3,5-dimethyl-7-[2-(methylamino)ethoxy]tricyclo[3.3.1.1^3,7]dec-1-yl}methyl)-5-methyl-1H-pyrazol-4-yl]pyridine-2-carboxylic acid], the EC50 in test [1] was determined as 1.4 nM. Also, the Ki is 0.019 nM in test [2] (setting [3]) and less than 0.001 nM in test [2] (setting [4]).

For `Cc1c(-c2ccc(N3CCn4cnc(C(=O)Nc5nc6ccccc6s5)c4C3)nc2C(=O)O)cnn1CC12CC3(C)CC(C)(C1)CC(OCCN)(C3)C2` [Compound W3.04, 3-(1-{[3-(2-aminoethoxy)-5,7-dimethyltricyclo[3.3.1.1^3,7]dec-1-yl]methyl}-5-methyl-1H-pyrazol-4-yl)-6-[1-(1,3-benzothiazol-2-ylcarbamoyl)-5,6-dihydroimidazo[1,5-a]pyrazin-7(8H)-yl]pyridine-2-carboxylic acid], the EC50 in test [1] was found to be 58.9 nM. Also, the Ki was 0.049 nM in test [2] (setting [3]) and less than 0.001 nM in test [2] (setting [4]).

`Cc1c(-c2ccc(N3CCc4c(O)ccc(C(=O)Nc5nc6ccccc6s5)c4C3)nc2C(=O)O)cnn1CC12CC3(C)CC(C)(C1)CC(OCCN)(C3)C2` [Compound W3.05, 3-(1-{[3-(2-aminoethoxy)-5,7-dimethyltricyclo[3.3.1.1^3,7]dec-1-yl]methyl}-5-methyl-1H-pyrazol-4-yl)-6-[8-(1,3-benzothiazol-2-ylcarbamoyl)-5-hydroxy-3,4-dihydroisoquinolin-2(1H)-yl]pyridine-2-carboxylic acid]: the EC50 in test [1] is 79 nM. The Ki is 0.23 nM in test [2] (setting [3]) and 0.02 nM in test [2] (setting [4]).

As to `CNCCOC12CC3(C)CC(C)(CC(Cn4ncc(-c5ccc(-c6ccc7cccc(C(=O)Nc8nc9ccccc9s8)c7c6)nc5C(=O)O)c4C)(C3)C1)C2` [Compound W3.06, 6-[8-(1,3-benzothiazol-2-ylcarbamoyl)naphthalen-2-yl]-3-[1-({3,5-dimethyl-7-[2-(methylamino)ethoxy]tricyclo[3.3.1.1^3,7]dec-1-yl}methyl)-5-methyl-1H-pyrazol-4-yl]pyridine-2-carboxylic acid], the EC50 in test [1] was 3.8 nM. In addition, the Ki is 0.22 nM in test [2] (setting [3]) and less than 0.001 nM in test [2] (setting [4]).

For the compound `CNCCOC12CC3(C)CC(C)(CC(Cn4ncc(-c5ccc(-c6cnc7cccc(C(=O)Nc8nc9ccccc9s8)c7c6)nc5C(=O)O)c4C)(C3)C1)C2` [Compound W3.10, 6-[5-(1,3-benzothiazol-2-ylcarbamoyl)quinolin-3-yl]-3-[1-({3,5-dimethyl-7-[2-(methylamino)ethoxy]tricyclo[3.3.1.1^3,7]dec-1-yl}methyl)-5-methyl-1H-pyrazol-4-yl]pyridine-2-carboxylic acid], the Ki is 0.0259 nM in test [2] (setting [3]) and less than 0.001 nM in test [2] (setting [4]).

As to `COCCOC12CC3(C)CC(C)(CC(Cn4ncc(-c5ccc(N6CCc7cc(N8CCC(N)C8)cc(C(=O)Nc8nc9ccccc9s8)c7C6)nc5C(=O)O)c4C)(C3)C1)C2` (stereo not drawn) [Compound W3.17, 6-[6-(3-aminopyrrolidin-1-yl)-8-(1,3-benzothiazol-2-ylcarbamoyl)-3,4-dihydroisoquinolin-2(1H)-yl]-3-(1-{[3-(2-methoxyethoxy)-5,7-dimethyltricyclo[3.3.1.1^3,7]dec-1-yl]methyl}-5-methyl-1H-pyrazol-4-yl)pyridine-2-carboxylic acid], the Ki in test [2] (setting [3]) was 2.3 nM; in test [2] (setting [4]), 0.49 nM.

As to `CNCCN(C)c1cc2c(c(C(=O)Nc3nc4ccccc4s3)c1)CN(c1ccc(-c3cnn(CC45CC6(C)CC(C)(C4)CC(OCCOC)(C6)C5)c3C)c(C(=O)O)n1)CC2` [Compound W3.21, 6-[8-(1,3-benzothiazol-2-ylcarbamoyl)-6-{methyl[2-(methylamino)ethyl]amino}-3,4-dihydroisoquinolin-2(1H)-yl]-3-(1-{[3-(2-methoxyethoxy)-5,7-dimethyltricyclo[3.3.1.1^3,7]dec-1-yl]methyl}-5-methyl-1H-pyrazol-4-yl)pyridine-2-carboxylic acid], the Ki stood at 0.14 nM in test [2] (setting [3]) and 0.014 nM in test [2] (setting [4]).

As to `CNCCOC12CC3(C)CC(C)(CC(Cn4ncc(-c5ccc(N6CCc7cc(OC)cc(C(=O)Nc8nc9ccccc9s8)c7C6)nc5C(=O)O)c4C)(C3)C1)C2` [Compound W3.22, 6-[8-(1,3-benzothiazol-2-ylcarbamoyl)-6-methoxy-3,4-dihydroisoquinolin-2(1H)-yl]-3-[1-({3,5-dimethyl-7-[2-(methylamino)ethoxy]tricyclo[3.3.1.1^3,7]dec-1-yl}methyl)-5-methyl-1H-pyrazol-4-yl]pyridine-2-carboxylic acid], the figures for the Ki in test [2] (setting [3]) and in test [2] (setting [4]) were 0.108 nM and less than 0.01 nM, respectively.

Consider `Cc1c(-c2ccc(-c3ccc4nccc(C(=O)Nc5nc6ccccc6s5)c4c3)nc2C(=O)O)cnn1CC12CC3(C)CC(C)(C1)CC(OCCN)(C3)C2` [Compound W3.23, 3-(1-{[3-(2-aminoethoxy)-5,7-dimethyltricyclo[3.3.1.1^3,7]dec-1-yl]methyl}-5-methyl-1H-pyrazol-4-yl)-6-[4-(1,3-benzothiazol-2-ylcarbamoyl)quinolin-6-yl]pyridine-2-carboxylic acid], for which the Ki stood at 1.1 nM in test [2] (setting [3]) and 0.021 nM in test [2] (setting [4]).

On to `Cc1c(-c2ccc(N3CCc4cccc(C(=O)Nc5nc6ccccc6s5)c4C3)nc2C(=O)O)cnn1CC12CC3(C)CC(C)(C1)CC(OCCNCCS(=O)(=O)N(C)C)(C3)C2` [Compound W3.36, 6-(8-(benzo[d]thiazol-2-ylcarbamoyl)-3,4-dihydroisoquinolin-2(1H)-yl)-3-(1-((3-(2-((2-(N,N-dimethylsulfamoyl)ethyl)amino)ethoxy)-5,7-dimethyladamantan-1-yl)methyl)-5-methyl-1H-pyrazol-4-yl)picolinic acid], for which the EC50 in test [1] is 6.9 nM.

With `Cc1c(-c2ccc(N3CCc4cccc(C(=O)Nc5nc6ccccc6s5)c4C3)nc2C(=O)O)cnn1CC12CC3(C)CC(C)(C1)CC(OCCNCCC(=O)N(C)C)(C3)C2` [Compound W3.38, 6-[8-(1,3-benzothiazol-2-ylcarbamoyl)-3,4-dihydroisoquinolin-2(1H)-yl]-3-(1-{[3-(2-{[3-(dimethylamino)-3-oxopropyl]amino}ethoxy)-5,7-dimethyltricyclo[3.3.1.1^3,7]dec-1-yl]methyl}-5-methyl-1H-pyrazol-4-yl)pyridine-2-carboxylic acid], the EC50 in test [1] worked out at 10.7 nM.

For `Cc1c(-c2ccc(N3CCc4cccc(C(=O)Nc5nc6ccccc6s5)c4C3)nc2C(=O)O)cnn1CC12CC3(C)CC(C)(C1)CC(NC(=O)CN)(C3)C2` [Compound W3.40, 3-(1-{[3-(2-aminoacetamido)-5,7-dimethyltricyclo[3.3.1.1^3,7]decan-1-yl]methyl}-5-methyl-1H-pyrazol-4-yl)-6-{8-[(1,3-benzothiazol-2-yl)carbamoyl]-3,4-dihydroisoquinolin-2(1H)-yl}pyridine-2-carboxylic acid], the Ki in test [2] (setting [3]) amounted to 1.1 nM; in test [2] (setting [4]), 0.024 nM.

`Cc1c(-c2ccc(N3CCc4cccc(C(=O)Nc5nc6ccccc6s5)c4C3)nc2C(=O)O)cnn1CC12CC3(C)CC(C)(CC(CCCN)(C3)C1)C2` [Compound W3.42, 3-(1-{[3-(3-aminopropyl)-5,7-dimethyltricyclo[3.3.1.1^3,7]dec-1-yl]methyl}-5-methyl-1H-pyrazol-4-yl)-6-[8-(1,3-benzothiazol-2-ylcarbamoyl)-3,4-dihydroisoquinolin-2(1H)-yl]pyridine-2-carboxylic acid]: the values for the Ki in test [2] (setting [3]) and in test [2] (setting [4]) were 4.36 nM and 0.15 nM, respectively.

Consider `Cc1c(-c2ccc(-c3cnc4cccc(C(=O)Nc5nc6ccccc6s5)c4c3)nc2C(=O)O)cnn1CC12CC3(C)CC(C)(C1)CC(OCCN)(C3)C2` [Compound W3.43, 3-(1-{[3-(2-aminoethoxy)-5,7-dimethyltricyclo[3.3.1.1^3,7]decan-1-yl]methyl}-5-methyl-1H-pyrazol-4-yl)-6-{5-[(1,3-benzothiazol-2-yl)carbamoyl]quinolin-3-yl}pyridine-2-carboxylic acid], for which the figures for the Ki in test [2] (setting [3]) and in test [2] (setting [4]) were 0.07 nM and less than 0.01 nM, respectively.

As a reminder, the EC50 is the midpoint of the concentration-response curve. The Ki is a dissociation constant, usually derived from enzyme kinetics or from competition with a known ligand.
